The values below come from patent publication US20140121107A1, “HERBICIDAL COMPOSITIONS FOR TOLERANT OR RESISTANT RICE CROPS” (Bayer Intellectual Property GmbH, priority 1998, published 2014).

What all share (assay type): in vivo
The subject of experiment [1] is Echinochloa crus galli. Description: Herbicidal effect in rice weeds (field trial, Table 9). The following applies: application in the 5-6-leaf stage, scoring 36 days after application. The procedure: (§1) Transgenic rice plants with a resistance to one or more herbicides (A) together with typical weed plants were grown in the open on 2×5 m plots under natural field conditions; alternatively, weed infestation occurred naturally when the rice plants were grown. Fields were set up for field rice or alternatively also for paddy rice.
(§2) […] The damage to, and the development of, all aerial parts of the plants was recorded. Scoring was done on the basis of a percentage sale (100% action=all plants destroyed; 50% action=50% of the plants and green parts of the plants destroyed; 0% action=no recognizable effect=like control plot. The mean of the score values of in each case 4 plots was calculated.

For experiment [2], the system named is Echinochloa crus-galli. Description: Herbicidal effect in rice weeds (field trial, Table 11). The following applies: application in the 4-leaf stage, scoring 26 days after application. On the procedure:
as §1
(§3) 2, 4, 6 and 8 weeks after the application, the herbicidal activity of the active substances or active substance mixtures was scored visually with reference to the treated plots in comparison to untreated control plots. The damage to, and the development of, all aerial parts of the plants was recorded. Scoring was done on the basis of a percentage sale (100% action=all plants destroyed; 50% action=50% of the plants and green parts of the plants destroyed; 0% action=no recognizable effect=like control plot. The mean of the score values of in each case 4 plots was calculated.

For experiment [3], the system named is Echinochloa crus-galli. Nature of the experiment: Herbicidal effect in rice broad-leaved weeds (Table 2). The conditions noted are these: application in the 3-4-leaf stage, scoring 2 weeks after application. The procedure: as §1, §3
Experiment [4] relates to Cyperus difformis. Nature of the experiment: Herbicidal effect in rice weeds (field trial, Table 5). The following applies: application in the 3-leaf stage, scoring 36 days after application. The procedure: as §1, §2
Experiment [5] relates to Ipomoea sp. Nature of the experiment: Herbicidal effect in rice weeds (Table 3). The conditions noted are these: application in the 4-leaf stage, scoring 2 weeks after application. On the procedure: as §1, §3
Experiment [6] deals with Aeschynomene rudis. Nature of the experiment: Herbicidal effect in rice weeds (field trial, Table 8). The following applies: application in the 3-leaf stage, scoring 28 days after application. The procedure: as §1, §3
The subject of experiment [7] is Cyperus iria. Description: Herbicidal effect in rice weeds (field trial, Table 6). The conditions noted are these: application in the 3-leaf stage, scoring 42 days after application. On the procedure: as §1, §3
Experiment [8] concerns Echinochloa crus galli. Nature of the experiment: Herbicidal effect in rice weeds (field trial, Table 7). The conditions noted are these: application in the 3-leaf stage, scoring 42 days after application. On the procedure:
as §1, §3

Experiment [9] relates to Echinochloa crus galli. Description: Herbicidal effect in rice weeds (field trial, Table 4). The following applies: application in the 4-leaf stage, scoring 42 days after application. The procedure:
as §1, §3

For experiment [10], the system named is Cyperus difformis. Nature of the experiment: Herbicidal effect in rice weeds (field trial, Table 10). The conditions noted are these: 15 g A.S./ha; application in the 7-leaf stage; scoring 36 days after application. On the procedure: as §1
The damage to, and the development of, all aerial parts of the plants was recorded.

Structures can show the parent of a compound that is named as a salt.

Regarding `CCc1cnc(C2=NC(C)(C(C)C)C(=O)N2)c(C(=O)O)c1` (centres unmarked) [(A3.2), imazethapyr], the “Herbicidal action (%) against Echinochloa crus galli” value in experiment [1] (75 g A.S./ha) is 67%. With `CP(=O)(O)CCC(N)C(=O)O` (centres unmarked) [(A1.2), glufosinate-monoammonium salt], the entries for the “Herbicidal action (%) against Echinochloa crus-galli” value in experiment [2] (250 g A.S./ha), in experiment [2] (500 g A.S./ha) and in [3] (400 g A.S./ha) were 35%, 75% and 93%, respectively. Moreover, the figures for the “Herbicidal action (%) against Cyperus difformis” value in [4] (400 g A.S./ha) and in experiment [4] (500 g A.S./ha) were 18% and 40%, respectively. For the same molecule, the “Herbicidal action (%) against Echinochloa crus galli” value in experiment [1] (500 g A.S./ha) was found to be 18%; in experiment [8] (400 g A.S./ha) it was 65%; in experiment [9] (250 g A.S./ha), 63%; in experiment [9] (500 g A.S./ha), 87%. The “Herbicidal action (%) against Ipomoea sp.” value in experiment [5] (400 g A.S./ha) is 93%. The results for the “Herbicidal action (%) against Aeschynomene rudis” value in [6] (250 g A.S./ha) and in experiment [6] (500 g A.S./ha) were 65% and 83%, respectively. Further, the “Herbicidal action (%) against Cyperus iria” value in experiment [7] (400 g A.S./ha) amounted to 35%.

Consider `O=C(O)c1c(Cl)ccc2cc(Cl)cnc12` [(B1.3), 3,7-dichloroquinoline-8-carboxylic acid], for which the “Herbicidal action (%) against Echinochloa crus galli” value in [8] (560 g A.S./ha) amounted to 25%. On to `CCS(=O)(=O)Oc1ccc2c(c1)C(C)(C)CO2` [(B2.15), 2,3-dihydro-3,3-dimethylbenzofuran-5-yl ethanesulfonate], for which the “Herbicidal action (%) against Cyperus difformis” value in [4] (200 g A.S./ha) was found to be 35%. `CC(C)Oc1cc(-n2nc(C(C)(C)C)oc2=O)c(Cl)cc1Cl` [(B1.21)]: the “Herbicidal action (%) against Cyperus iria” value in experiment [7] (250 g A.S./ha) is 37%. For the molecule `CCN(CC)C(=O)SCc1ccc(Cl)cc1` [(B1.2), S-4-chlorobenzyl diethylthiocarbamate], the “Herbicidal action (%) against Cyperus iria” value in experiment [7] (1500 g A.S./ha) is 57%. With `CCC(=O)Nc1ccc(Cl)c(Cl)c1` [(B1.4), N-(3,4-dichlorophenyl)-propanamide], the “Herbicidal action (%) against Ipomoea sp.” value in experiment [5] (3360 g A.S./ha) is given as 90%. Take `CCOc1ccccc1OS(=O)(=O)NC(=O)Nc1nc(OC)cc(OC)n1` [(B2.4), 1-(4,6-dimethoxypyrimidin-2-yl)-3-(2-ethoxyphenoxysutfonyl)urea]: the “Herbicidal action (%) against Cyperus difformis” value in experiment [10] came to 40%. As to `Cc1nn(-c2cc(CC(Cl)C(=O)O)c(Cl)cc2F)c(=O)n1C(F)F` (racemic) [(B2.13), (RS)-2-chloro-3-[2-chloro-5-(4-difluoromethyl-4,5-dihydro-3-methyl-5-oxo-1H-1,2,4-triazol-1-yl)-4-fluorophenyl]propionic acid], the “Herbicidal action (%) against Cyperus difformis” value in experiment [4] (50 g A.S./ha) came to 28%.

For the molecule `CCC(CC)Nc1c([N+](=O)[O-])cc(C)c(C)c1[N+](=O)[O-]` [(B1.5), N-(1-ethylpropyl)-2,6-dinitro-3,4-xylidine], the “Herbicidal action (%) against Cyperus iria” value in experiment [7] (1000 g A.S./ha) is given as 33%. In the case of `COc1nc(C)nc(NC(=O)NS(=O)(=O)c2ccccc2C(=O)O)n1` [(B2.5), 2-[[[[(4-methoxy-6-methyl-1,3,5-triazin-2-yl)amino]carbonyl]amino]sulfonyl]benzoic acid], the “Herbicidal action (%) against Cyperus iria” value in experiment [7] (1 g A.S./ha) came to 35%. Take `COC(=O)c1ccccc1CS(=O)(=O)NC(=O)Nc1nc(OC)cc(OC)n1` [(B2.3), methyl 2-[[[[[(4,6-dimethoxy-2-pyrimidinyl)amino]carbonyl]-amino]sulfonyl]methyl]benzoate]: in [3] (45 g A.S./ha), the “Herbicidal action (%) against Echinochloa crus-galli” value worked out at 0%. Further, the “Herbicidal action (%) against Cyperus difformis” value in experiment [4] (35 g A.S./ha) was 55%; in [4] (70 g A.S./ha) it was 87%. For the molecule `CCSC(=O)N1CCCCCC1` [(B1.1), S-ethyl azepane-1-thiocarboxylate], in experiment [1] (4480 g A.S./ha), the “Herbicidal action (%) against Echinochloa crus galli” value is listed as 0%.

As for `O=C(O)COc1ccc(Cl)cc1Cl` [(B2.1), (2,4-dichlorophenoxy)acetic acid], in experiment [7] (500 g A.S./ha), the “Herbicidal action (%) against Cyperus iria” value was found to be 62%. Take `CC1(C)CON(Cc2ccccc2Cl)C1=O` [(B1.12), 2-(2-chlorobenzyl)-4,4-dimethyl-1,2-oxazolidin-3-one]: the “Herbicidal action (%) against Echinochloa crus galli” value in experiment [9] (400 g A.S./ha) turned out to be 7%.

`COc1cc(OC)nc(NC(=O)NS(=O)(=O)c2c(C(=O)O)cnn2C)n1` [(B2.8), 5-(4,6-dimethoxypyrimidin-2-ylcarbamoylsulfamoyl)-1-methylpyrazole-4-carboxylic acid]: the “Herbicidal action (%) against Cyperus difformis” value in experiment [4] (15 g A.S./ha) was determined as 65%. `CCCC(=NOCC(C)Oc1ccc(Cl)cc1)C1=C(O)CC(C2CCCSC2)CC1=O` (centres unmarked) [(B4.4)]: the “Herbicidal action (%) against Echinochloa crus-galli” value in experiment [2] (37.5 g A.S./ha) is given as 50%; in experiment [2] (75 g A.S./ha), 83%.
